Measured values reported in patent publication US9388126B2, “Sigma receptor ligands and methods of modulating cellular protein homeostasis using same” (Drexel University, priority 2012, dated 2016).

What was measured:
Assay type in all cases: cell-based, human
[1] = system: MDA-MB-468 and T47D breast adenocarcinoma cells; experiment: ER stress response immunoblot (P-p38MAPK, GRP78/BiP); conditions: 10 μM, 16 hours
Method: FIG. 58A is an image of an immunoblot of MDA-MB-468 breast adenocarcinoma cells treated for 16 hours with 10 μM JMS-51-58. FIG. 58B is an image of an immunoblot of T47D breast adenocarcinoma cells treated for 16 hours with 10 μM JMS-51-58. The levels of phospho-Thr 180/Tyr 182 p38MAPK (P-p38MAPK) and GRP78/BiP and were evaluated by immunoblot.

[2] = system: MDA-MB-468 and T47D breast adenocarcinoma cells; experiment: Translational arrest immunoblot (P-S6K, P-4E-BP1); conditions: 10 μM, 16 hours
Method: FIG. 57A is an image of an immunoblot illustrating MDA-MB-468 breast adenocarcinoma cells treated for 16 hours with 10 μM of JMS-51-58. FIG. 57B is an image of an immunoblot illustrating T47D breast adenocarcinoma cells treated for 16 hours with 10 μM of JMS-51-58. The levels of phosphothreonine 389-p70S6Kinase (P-S6K) and phosphoserine 65-4E-BP1 (P-4E-BP1) were evaluated by immunoblot. Decreased levels of both phosphoprotein levels indicated diminished protein synthesis.

[3] = system: MDA-MB-231 breast adenocarcinoma cells; experiment: Alamar blue proliferation assay with bortezomib; conditions: ~70 hours
Method: FIG. 61, comprising FIGS. 61A-61B, is a set of graphs illustrating the finding that the novel Sigma1 ligand JMS-51-58 potentiated proteasome inhibitor mediated inhibition of tumor cell proliferation. In vitro cell proliferation was quantified by Alamar blue assay. The anti-proliferative effects of four drug concentrations of novel Sigma1 small molecule ligand JMS-51-58, were quantified after ˜70 hours of treatment of MDA-MB-231 breast adenocarcinoma cell cultures. […] Note the shift to the left of the dose-response curve (broken line). Data are representative of an experiment performed in triplicate.

[4] = system: MDA-MB-468, T47D, MDA-MB-231 and PC3 cells; experiment: Cell proliferation by Alamar blue assay, tumor cell lines; conditions: four drug concentrations, 40-70 hours of treatment
Method: In vitro cell proliferation was quantified by Alamar blue assay. The anti-proliferative effects of four drug concentrations of novel Sigma1 small molecule ligand JMS-51-2nd-58 were quantified after 40-70 hours of treatment. Data are representative of an experiment formed in triplicate for each cell line. FIG. 60A is a graph illustrating cell death in MDA-MB-468 breast adenocarcinoma cell cultures. FIG. 60B is a graph illustrating cell death in T47D breast adenocarcinoma cell cultures. FIG. 60C is a graph illustrating cell death in MDA-MB-231 breast adenocarcinoma cell cultures. FIG. 60D is a graph illustrating cell death in PC3 prostate adenocarcinoma cell cultures.

[5] = system: MDA-MB-468 and MDA-MB-231 breast adenocarcinoma cells; experiment: Poly-ubiquitylated protein immunoblot, breast adenocarcinoma cells; conditions: 10 μM, 16 hours, MDA-MB-468 and MDA-MB-231
Method: FIG. 34A is an image of an immunoblot of MDA-MB-468 breast adenocarcinoma cells treated with 10 μM Sigma1 antagonist (IPAG) for the indicated times, up to 24 hours. Total cell lysates were resolved by SDS-PAGE and immunoblotted with a poly-ubiquitin antibody P4D1. FIG. 34B is an image of an immunoblot of HepG2 hepatocellular carcinoma cells treated for 20 hours with 10 μM of indicated Sigma1 ligands.
FIG. 59, comprising FIGS. 59A-59B, illustrates the finding that the novel Sigma1 ligand JMS-51-58 modulated the ubiquitin proteasome system. FIG. 59A is an image of an immunoblot evaluating the levels of poly-ubiquitylated proteins of MDA-MB-468 breast adenocarcinoma treated for 16 hours with 10 μM of JMS-51-58. FIG. 59B is an image of an immunoblot evaluating the levels of poly-ubiquitylated proteins of MDA-MB-231 breast adenocarcinoma cells treated for 16 hours with 10 μM of JMS-51-58. The levels of poly-ubiquitylated proteins were evaluated by immunoblot.

[6] = system: MDA-MB-468 (GFP-LC3), MDA-MB-468 and T47D breast adenocarcinoma cells; experiment: Autophagy markers (GFP-LC3II, GFP-LC3 punctae, endogenous LC3II); conditions: 10 μM, ~16 hours
Method: FIG. 56A is an immunoblot illustrating MDA-MB-468 breast adenocarcinoma cells stably transfected with GFP-LC3 (green fluorescent protein tagged light chain 3, an autophagy marker) treated for ˜16 hours with 10 μM IPAG or 10 μM 1-3 JMS-51-58. The appearance of GFP-LC3II was an indication of autophagosome formation. FIG. 56B is an image illustrating formation of autophagosomes (GFP-LC3 punctae) in MDA468 (GFP-LC3) treated with 10 μM JMS-51-58 as in FIG. 56A. The arrow points to an example of GFP-LC3-positive autophagosomes. The white bar at the bottom of the image indicates 100 μm. FIG. 56C is an image of an immunoblot illustrating the appearance of endogenous LC3II, a marker of autophagosome formation, in MDA-MB-468 breast adenocarcinoma cells treated for 16 hours with 10 μM of JMS-51-58. FIG. 56D is an image of an immunoblot illustrating the appearance of endogenous LC3II, a marker of autophagosome formation, in T47D breast adenocarcinoma cells treated for 16 hours with 10 μM JMS-51-58.

[7] = system: MDA-MB-231 and PC3 cells; experiment: In vitro cell adhesion by Alamar blue assay; conditions: 16 hours in the presence of drug
Method: In vitro cell adhesion was quantified by Alamar blue assay. MDA-MB-231 and PC3 cells were detached with 0.25% trypsin+2 mM EDTA and reseeded onto 96 well plates. At the time of cell seeding, IPAG (Sigma1 putative antagonist) was added at the indicated doses to wells containing adenocarcinoma cells. The suspended cells were allowed to sediment and adhere for 16 hours in the presence of drug. Subsequently, the culture medium was removed by aspiration, each well washed once with 0.2 ml PBS (without calcium and magnesium), and Alamar blue assay was performed to quantify the number of live cells adhered to the surface of each well. FIG. 63A is a graph illustrating cell adherence in MDA-MB-231 breast adenocarcinoma cells. FIG. 63B is a graph illustrating cell adherence in PC3 prostate adenocarcinoma cells. The same procedure was performed using the indicated concentrations of JMS-51-58. FIG. 63C is a graph illustrating cell adherence in MDA-MB-231 breast adenocarcinoma cells. FIG. 63D is a graph illustrating cell adherence in PC3 prostate adenocarcinoma cells. Standard deviation bars are shown.

[8] = system: MDA-MB-468 cells; experiment: Cell death by trypan blue exclusion; conditions: 10 μM with bortezomib 1, 10, 100 nM, 20 hours
Method: Trypan blue exclusion and propidium iodide staining were used to quantify general cell death and the presence of apoptotic cell death was confirmed by immunoblot. The percentage of dead cells in a given population was determined by quantifying the number of trypan blue positive (dead) cells and dividing by the total number of trypan blue positive and negative cells.

## N=C(NCCCOc1ccc(F)cc1)Nc1ccc(I)cc1 [JMS-51-58, 1-(3-(4-fluorophenoxy)propyl)-3-(4-iodophenyl)guanidine]
[1]
  ER stress response: mediated ER stress response
[2]
  translational arrest (decreased P-S6K and P-4E-BP1): mediated translational arrest
[3]; 3 μM
  cell proliferation and rates of cell death: did not alter cell proliferation or rates of cell death
[3]; sub-lethal dose (3 μM)
  potentiation of bortezomib (BTZ) inhibition of cell proliferation: potentiated the cell proliferation inhibiting effects of bortezomib
[4]
  tumor cell proliferation: inhibited tumor cell proliferation
[5]
  levels of poly-ubiquitylated proteins: increased ubiquitylated protein levels compared to the DMSO control
[6]
  induction of autophagy: induced autophagy
[7]
  cell adhesion: inhibited adhesion of metastatic breast and prostate adenocarcinoma cell lines
[8]
  potentiation of proteasome inhibitor (bortezomib) mediated cell death: potentiated proteasome inhibitor mediated tumor cell death
